The results in this text go back to PMC9684509, “Construction of a synthetic methodology-based library and its application in identifying a GIT/PIX protein–protein interaction inhibitor” (Nature Communications, 2022).

The term Ki denotes the equilibrium dissociation constant of an inhibitor or competing ligand from its target. A low value points to higher affinity. One may read the IC50 as the concentration needed to halve the response being measured.

Ends that are not written are not given here.

T1: GIT1 1–370 (Mus musculus, UniProt Q68FF6)
T1 construct: residues 1-370, E. coli BL21(DE3), N-terminal Trx-His6 tag removed by HRV-3C protease; for BLI biotin-labelled (BLI construct not restated)
T1 sequence (Q68FF6 1-370): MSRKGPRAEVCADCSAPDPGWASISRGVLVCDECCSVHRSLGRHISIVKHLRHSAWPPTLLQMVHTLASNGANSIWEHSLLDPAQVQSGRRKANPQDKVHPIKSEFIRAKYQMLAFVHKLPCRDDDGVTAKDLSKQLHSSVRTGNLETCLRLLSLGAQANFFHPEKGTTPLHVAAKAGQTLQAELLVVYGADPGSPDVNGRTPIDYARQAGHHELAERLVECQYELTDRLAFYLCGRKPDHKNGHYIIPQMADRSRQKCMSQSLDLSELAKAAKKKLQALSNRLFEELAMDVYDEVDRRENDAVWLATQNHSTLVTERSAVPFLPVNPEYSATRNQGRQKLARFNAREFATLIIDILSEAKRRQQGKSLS

T2: GIT1 1–370 (mouse) (mouse, UniProt Q68FF6 1-370)
T2 construct: GIT1, mouse, aa 1-370 (GenBank NM_001004144.1), cloned into pET32M3C; also called GIT1 protein; source: E. coli BL21 (DE3), purified (Ni-NTA, SEC, tag cleaved by HRV-3C, SEC); not shown: Trx, N-terminal, cleaved; His6, N-terminal, cleaved
T2 sequence (looked up): T1 sequence (Q68FF6 1-370)

B1: FITC-β-Pix fluorescent peptide (peptide)
peptide: ALEEDAQILKVIEAYCTSAKT
modifications: not fully specified (N-terminus)
notes: source: synthetic peptide (China peptide, Shanghai)

In the first experiment the target is T1, GIT1 1–370. The experiment can be described thus: fluorescence polarization competition with FITC-beta-Pix peptide.
Details: not given
It counts as binding. (In general: Polarisation of emitted light reports the rotation of a fluorescent probe.)
Regarding `CCOC(=O)[C@@H]1[C@@H]2C[C@@H](/C(=C\c3ccoc3)C2=O)[C@@]12C(=O)N(C)c1ccccc12` [14-5-18], the affinity, expressed as Ki, was 1.8 µM.
`CCOC(=O)C1=C[C@H](c2cccc(C)c2)[C@H]2CC[C@@H](CC(=O)C3CCCCC3)O[C@H]2N1S(=O)(=O)c1ccc(C)cc1` [15-4-26] registered an inhibition constant (Ki) of 1.5 µM.

A further experiment concerns the target T1, GIT1 1–370. Briefly: biochemical. On the set-up: Fluorescence polarization competition of FITC-beta-Pix peptide binding to GIT1 1-370. Particulars: read-out: IC50 in FP assay. As to the method:
GIT1 protein purification: Purification of GIT1 1–370 was performed following a published protocol. Briefly, the coding sequence of mouse GIT1 aa. 1–370 (GenBank: NM_001004144.1) was cloned into a pET32M3C (with an N-terminal Trx-His6 tag) vector. The recombinant protein was expressed in Escherichia coli BL21 (DE3) cells at 16 °C for 18 h induced by the isopropyl-β-D-thiogalactoside (IPTG) at a final concentration of 0.2 mM. The N-terminal Trx-His6-tagged GIT1 1–370 was purified by Ni^2+-NTA agarose affinity chromatography, followed by a Superdex-200 26/60 size-exclusion chromatography (GE Healthcare, Cytiva). To remove the Trx-His6 tag, GIT1 protein was cleaved by HRV-3C protease at 4 °C overnight and then purified by another step of SEC purification. The β-Pix-positive peptide (sequence: […]) and fluorescent peptide (sequence: FITC-(Acp)-[…]) were synthesized by China peptide (Shanghai, China). FP assay was used to monitor interactions between GIT1 and the compounds. For each assay, fresh protein stocks of GIT1 were thawed. Assay buffer contained 100 mM NaCl, 50 mM Tris pH 7.5. All the experiments were prepared in duplicates. The fluorescence intensities, parallel and perpendicular to the plane of excitation, were determined in Corning black 96-well NBS assay plates at room temperature. Fluorescence polarization was determined using a Multi-Mode Detection Platform (SpectraMax Paradigm, Molecular Devices, USA) with 485 nm excitation and 535 nm emission filters, the values were expressed in millipolarization units (mP). The binding affinity of the fluorescent peptide toward GIT1 was first determined via titration. For this purpose, 100 nM fluorescent peptide was contacted with serial dilutions of GIT1 (concentration ranging from 0.01 to 10 µM) in a final volume of 80 µL. KD value was stimulated from FP values and protein concentrations using GraphPad Prism 8.0 software. Competition binding assay was performed using 100 nM fluorescent peptide and optimal protein concentration (2.0 µM) for the measurement was calculated based on determined KD. Tested compounds were prepared as serial dilutions (0.1–500 µM) in DMSO. […] Additionally, the commercial compound library ChemDiv was screened as a control. The 20 compounds with the best docking scores were selected, purchased, and further subjected to FP binding assay to test their inhibitory abilities. […] The screening was performed at both virtual and entity levels. In the virtual screening, the docking model of the GIT1/β-Pix complex was constructed, and the binding pocket was generated based on the complex structure of GIT2/β-Pix that we solved recently (PDB ID: 6JMT)[42] (Fig. 2c). The virtual library (SMBL-V) was subjected to the Sybyl-X 2.0 program to perform high-throughput docking screening with GIT1 at the specific binding pockets. […] The Autodock and Sybyl-X 2.0 programs were used in combination for the second round of screening. Twenty top-ranked molecules were selected, and 9 compounds were synthesized (one structure for each scaffold) to perform further evaluation (N = 9) (see Source Data File for detailed structures and scores). For the entity library (SMBL-E) screening, a fluorescence polarization (FP)-binding assay[43],[44] was established to evaluate the inhibitory abilities of the compounds on the GIT1/β-Pix interaction (Fig. 2d). Several representative compounds (N = 100) with different scaffolds were chosen for screening. Together with the 9 compounds selected from virtual screening, a total of 109 compounds were subjected to the FP binding assay to perform the final evaluation. Compound 15-4-26 from the virtual library and compound 14-5-18 from the entity library with the best binding affinities (Ki values) were selected as candidates (Fig. 2e and Supplementary Fig. 3).
For the molecule `C1C2CC3CC1CC(C2)C3Nc1nc2nonc2nc1NC1C2CC3CC(C2)CC1C3` (stereo not drawn) [3277-0083], the IC50 is over 100 µM.
For the molecule `CC(NS(=O)(=O)c1ccc2c(c1)C(=O)c1cc(S(=O)(=O)NC(C)C(=O)O)ccc1-2)C(=O)O` (stereo not drawn) [2578-0155], the IC50 was over 1000 µM.
Regarding `Cn1c(=O)n(C)c2cc(CNC34CC5CC(C)(CC(C)(C5)C3)C4)ccc21` [D272-0692], the IC50 was over 1000 µM.
For `Cn1c(=O)c2c(nc(Oc3cccc(C4Nc5ccc6ccccc6c5C5=C4C(=O)CC(C)(C)C5)c3)n2C)n(C)c1=O` (stereo not drawn) [3277-0261], the IC50 was over 100 µM.
On to `O=C(Nc1cccc(OCc2cc(=O)n3cc(Cl)ccc3n2)c1)Nc1ccc2c(c1)OCCO2` [G756-2320], for which the half-inhibitory concentration (IC50) was over 100 µM.
Still for that read-out and setting: the result for `O=S(=O)(c1ccc2nc(Nc3ccc(Br)cc3F)ccc2c1)N1CCCCC1` [F052-0078] reads over 100 µM.
The same measure, in the same setting: the result for `O=C1Nc2ccccc2Oc2cc(Oc3ccc4c(c3)OCO4)c(S(=O)(=O)N3CCCC3)cc21` [J030-0445] reads over 1000 µM; that for `CCS(=O)(=O)c1ccc2c(c1)N(Cc1nc(-c3ccc4c(c3)OCO4)no1)C(=O)CO2` [L111-0329], over 1000 µM; that for `Cc1cc(C)cc(S(=O)(=O)N2CCC3(CC2)NCCN=C3NCc2ccc(C(F)(F)F)cc2)c1` [L676-2486], over 100 µM.
Regarding `CC(CC(=O)Nc1ccc2c(c1)OCCO2)S(=O)(=O)c1ccc2c(c1)NC(=O)CCS2` (stereo not drawn) [L705-0544], the concentration for half-maximal inhibition (IC50) is over 1000 µM.
Take `CC1=CC(C)(C)Nc2ccc(OC(=O)C(Cc3ccccc3)N3C(=O)C4CCCCC4C3=O)cc21` (stereo not drawn) [4934-0001]: the IC50 is over 1000 µM.
As to `Cc1ccc2cc3c(nc2c1)N(S(=O)(=O)c1ccc2c(c1)OCCO2)CC3` [D470-0645], the IC50 was over 100 µM.
Turning to `Cc1cc(-c2ccc3ccccc3n2)nc2ccc3ccccc3c12` [0443-0206], the half-maximal inhibitory concentration (IC50) is over 1000 µM.
Turning to `CSc1cccc(NC(=O)Nc2ccc(Nc3cc(N(C)C)nc(C)n3)cc2)c1` [D638-0006F], the IC50 was over 1000 µM.
On the same count and under the same terms, as for `CN1C(=O)C(c2c(-c3ccc4ccccc4c3)[nH]c3[nH]c(=O)[nH]c(=O)c23)c2ccccc21` (stereo not drawn) [D517-1064], the figure is over 1000 µM.

The next experiment deals with T2, GIT1 1–370 (mouse). The experiment can be described thus: fluorescence polarisation; direct titration: 100 nM fluorescent peptide with serial dilutions of GIT1 (0.01 to 10 µM), 80 µL; 100 mM NaCl, 50 mM Tris pH 7.5, room temperature. To be noted: both partners purified.
Regarding B1, the binding result is “binds”.

The next experiment concerns the target T1, GIT1 1–370. Briefly: biochemical. To be noted: read-out: ka. More on the design: Biolayer interferometry, kinetic binding of 14-5-18 to GIT1. The source says: We next investigated whether compounds 14-5-18 and 15-4-26 specifically perturbed the GIT1/β-Pix interaction in living cells. Firstly, we performed Cellular Thermal Shift Assay (CETSA) to preliminarily explore the target engagement of the compounds with GIT1 (Supplementary Fig. 4). CETSA relies on the fact that proteins are generally vulnerable to thermal conditions, while physical binding with other molecules could improve their stability. […] Therefore, further evaluations were only performed with 14-5-18, and 15-4-26 was suspended for its poor potential for drug development. […] Similarly, under thermal conditions from 30 to 90 °C, 14-5-18 (50 µM) also considerably stabilized GIT1, especially at high temperatures (Supplementary Fig. 4c). To further confirm whether 14-5-18 directly bound to GIT1, we used biolayer interferometry (BLI) assay to measure their interaction. […] Concentrations ranging from 25 to 400 μM were shown with the real-time response for each step of the kinetic assay. b Co-IP assay to indicate the interaction of GIT1 and β-Pix and the inhibitory effects of 14-5-18. […] GFP-GIT1 (green) and Myc-β-Pix were expressed followed by treatment with a fluorescent secondary antibody (red) in the MGC803 cell line to construct the fluorescence system. […] Plot fluorescence intensities of the area marked by the white lines in the left panels are shown in the right graphs. […]
With `CCOC(=O)[C@@H]1[C@@H]2C[C@@H](/C(=C\c3ccoc3)C2=O)[C@@]12C(=O)N(C)c1ccccc12` [14-5-18, ethyl (1S,2R,3R,4S,E)-6-(furan-3-ylmethylene)-1'-methyl-2',5-dioxospiro [bicyclo[2.2.1]heptane-2,3'-indoline]-3-carboxylate], the kon worked out at 200 M⁻¹ s⁻¹.

The same experiment, now with this note: read-out: kdis.
As to `CCOC(=O)[C@@H]1[C@@H]2C[C@@H](/C(=C\c3ccoc3)C2=O)[C@@]12C(=O)N(C)c1ccccc12` [14-5-18, ethyl (1S,2R,3R,4S,E)-6-(furan-3-ylmethylene)-1'-methyl-2',5-dioxospiro [bicyclo[2.2.1]heptane-2,3'-indoline]-3-carboxylate], the koff came to 0.00154 s⁻¹.

For a further experiment, the target named is T1, GIT1 1–370. Briefly: biochemical. To be noted: read-out: IC50 in FP assay. On the set-up: fluorescence polarization competition, displacement of FITC-beta-Pix peptide from GIT1. The source holds these as a separate data set. Here is the method: GIT1 protein purification: Purification of GIT1 1–370 was performed following a published protocol. Briefly, the coding sequence of mouse GIT1 aa. 1–370 (GenBank: NM_001004144.1) was cloned into a pET32M3C (with an N-terminal Trx-His6 tag) vector. The recombinant protein was expressed in Escherichia coli BL21 (DE3) cells at 16 °C for 18 h induced by the isopropyl-β-D-thiogalactoside (IPTG) at a final concentration of 0.2 mM. The N-terminal Trx-His6-tagged GIT1 1–370 was purified by Ni^2+-NTA agarose affinity chromatography, followed by a Superdex-200 26/60 size-exclusion chromatography (GE Healthcare, Cytiva). To remove the Trx-His6 tag, GIT1 protein was cleaved by HRV-3C protease at 4 °C overnight and then purified by another step of SEC purification. The β-Pix-positive peptide (sequence: […]) and fluorescent peptide (sequence: FITC-(Acp)-[…]) were synthesized by China peptide (Shanghai, China). […] The fluorescence intensities, parallel and perpendicular to the plane of excitation, were determined in Corning black 96-well NBS assay plates at room temperature. Fluorescence polarization was determined using a Multi-Mode Detection Platform (SpectraMax Paradigm, Molecular Devices, USA) with 485 nm excitation and 535 nm emission filters, the values were expressed in millipolarization units (mP). The binding affinity of the fluorescent peptide toward GIT1 was first determined via titration. […]
`O=C(NCc1ccco1)C1CN(C(=O)c2cccs2)CC12CCCCC2` (stereo not drawn) [S030-1757]: the IC50 is over 1000 µM.
